In PubChem BioAssay AID977606 (Broad Institute, 2014) one finds AC40 data, which are given here for 67 compounds.

The source made the active and inactive calls. No rule for the calls is given here.

The test system of this assay is INS-1E Gaussia luciferase insulin secretion, no glucose, luminescence. The experiment in a line: glucose-independent GLuc insulin release activation – cell-based, INS-1E, Gaussia luciferase, luminescence, cherry-pick, counter-screen for glucose-dependent insulin secretion activators, dose response (AID 977606). On the technique in general: A counterscreen serves to expose hits that act by an unwanted route or on another target.
As to `COC(=O)C1=C(C)N(Cc2ccc(C(F)(F)F)cc2)C(=NCc2ccccc2)NC1c1ccc(Cl)cc1` (configuration not stated), the AC40 was 10.8 µM.

For `Cc1ccc(-c2ccc(C3[C@@H]4CN(Cc5cccc(F)c5)C[C@H]3N4)cc2)cc1` (some centres not stated), the AC40 is 2.14 µM.

Turning to `Cc1cccc(Cn2ccc(-c3ccc(Cl)cc3)c(C#N)c2=O)c1`, the AC40 was 3.46 µM.

For `CCN(Cc1ccccc1)S(=O)(=O)c1ccc(C(=O)Nc2nnc(C)o2)cc1`, the AC40 was 0.0558 µM.

Turning to `COc1ccc2nc3ccccc3nc2c1NC(=O)c1ccc(Cl)cc1Cl`, the AC40 was 5.1 µM.

Take `O=C(COc1ccccc1)Nc1sc2c(c1C(=O)NCc1cccnc1)CCCC2`: the AC40 is 6.97 µM.

For `NCCCNC(=S)NCCCN(Cc1ccc(Cl)cc1)c1ccc(Br)cn1`, the AC40 is 23.4 µM.

In the case of `CCC(C)c1ccccc1OCCCN(C)Cc1ccccc1` (configuration not stated), the AC40 is 9.93 µM.

In the case of `Cc1ccc(S(=O)(=O)N2C[C@@H]3N[C@H](C2)C3c2ccc(/C=C/c3ccccc3)cc2)cc1` (some centres not stated), the AC40 is 4.56 µM.

With `COc1ccc(C#Cc2ccc([C@@H]3[C@H](CO)N4CCCCN(Cc5ccccc5F)C[C@@H]34)cc2)cc1`, the AC40 is 9.33 µM.

In the case of `O=c1[nH][nH]c2c1C(c1ccc(Cl)c(Cl)c1)OC(CCc1ccccc1)C2` (configuration not stated), the AC40 was 19.2 µM.

In the case of `CC1(C(=O)NS(=O)(=O)c2ccccc2Cl)CCN1C(=O)C1(c2ccccc2)CCCC1` (configuration not stated), the AC40 was 23.4 µM.

Turning to `Cc1ncc(N=Nc2ccc(F)cc2)c(-c2ccc(Cl)cc2)n1`, the AC40 was 8.66 µM.

Regarding `Cc1cccc(-c2ccc(C3[C@@H]4CN(C(=O)C5CCCCC5)C[C@H]3N4)cc2)c1` (some centres not stated), the AC40 is 11.3 µM.

Regarding `CCCCc1c(Cc2cccc(F)c2)ncn1CCc1ccccc1OC`, the AC40 is 4.98 µM.

Regarding `COC(=O)C1=C(C)N(Cc2cccc(C(F)(F)F)c2)C(=NCc2ccc3c(c2)OCO3)NC1CCc1ccccc1` (configuration not stated), the AC40 is 6.1 µM.

As to `CCCN1Cc2cccc(C(=O)NCc3ccccc3)c2C1=O`, the AC40 was > 35 µM (inactive).

For `Nc1c(C(=O)Nc2ccc3c(c2)OCCO3)nnn1Cc1ccc(Cl)cc1`, the AC40 was 10.1 µM.

Take `Oc1ccccc1-c1cc(C(F)(F)C(F)F)nc(-c2ccccc2)n1`: the AC40 was 3.86 µM.

Regarding `O=C(Nc1ccc2c(c1)OCO2)c1sc2cc(Cl)ccc2c1Cl`, the AC40 was 4.98 µM.

As for `CCCc1nc2ccccc2c(=O)n1CC(=O)c1ccc(OC)cc1`, the AC40 was 5.72 µM.

Take `COc1ccc(S(=O)(=O)N2CCc3ccccc32)cc1C(=O)Nc1ccc(C(N)=O)cc1`: the AC40 is 6.44 µM.

`COc1ccc(C(=O)Nc2ccc3c(c2)C(=O)c2ccccc2C3=O)cc1OC`: the AC40 was > 35 µM (inactive).

With `C/C(=N\NC(=O)c1cccc(Br)c1)c1ccc(Br)cc1`, the AC40 was 13 µM.

Turning to `COc1cc(CN2CCc3ccccc3C2)ccc1O`, the AC40 is 13.6 µM.

Regarding `Cc1cc(C)nc(Nc2n[nH]c(COc3ccc4ccccc4c3)n2)n1`, the AC40 is 6.18 µM.

`Cc1cc(Nc2ccc(Cl)cc2)nc(NCc2ccccc2)n1`: the AC40 was 6.67 µM.

With `O=C1CCc2cc(S(=O)(=O)N3CCN(c4ccc(F)cc4)CC3)cc3c2N1CC3`, the AC40 was > 35 µM (inactive).

Consider `CCNC(=O)NC(=O)C(C)OC(=O)c1oc2ccccc2c1CSC1CCCCC1` (configuration not stated), for which the AC40 is 2.22 µM.

Take `NS(=O)(=O)c1ccc(CCNc2nc3c(-c4cccc(F)c4)nnn3c3ccccc23)cc1`: the AC40 is 2.03 µM.

Regarding `CC1CCC(C(C)C)C(OCC(O)CNC(C)c2ccccc2)C1` (configuration not stated), the AC40 was 11.8 µM.

With `O=c1c(C=Nc2ccc(Oc3ccccc3)cc2)c[nH]n1-c1cccc(Cl)n1`, the AC40 was 4.28 µM.

With `CS(=O)(=O)N(Cc1ccc(Cl)cc1)c1ccc(C(=O)NCCC2=CCCCC2)cc1`, the AC40 is 6.78 µM.

As for `CCSc1nnc(NC(=O)c2csc3c2CCCC3)s1`, the AC40 was 5.49 µM.

Turning to `COc1ccc(NC(=O)Cc2c(SC)c3ccccc3n2Cc2ccccc2)cc1`, the AC40 was 12.5 µM.

On to `O=c1c2ccccc2sn1-c1ccc(F)cc1`, for which the AC40 was 2.43 µM.

As for `COC(=O)C1=C(C)N(Cc2cccc(C(F)(F)F)c2)C(=NCc2ccc(OC)cc2)NC1c1ccc(F)cc1` (configuration not stated), the AC40 is 8.44 µM.

Take `O=C(Nc1nnc(-c2ccccc2SCc2ccccc2F)s1)Nc1ccccc1F`: the AC40 is 12.8 µM.

On to `CCOC(=O)c1c(-n2cnnn2)sc2c1CCCC2`, for which the AC40 was > 35 µM (inactive).

In the case of `C[C@@H](NC(=O)C[C@@H]1C[C@@H]2c3cc(NC(=O)Nc4ccccc4F)ccc3O[C@@H]2[C@@H](CO)O1)c1ccccc1`, the AC40 was 34.3 µM.

With `CCCNC(=O)Cn1sc2nc(C)cc(C)c2c1=O`, the AC40 is 2.31 µM.

For the compound `Cc1cccc(S(=O)(=O)N2C[C@@H]3N[C@H](C2)C3c2ccc(-c3ccccc3F)cc2)c1` (some centres not stated), the AC40 was 2.91 µM.

For the compound `CCOc1ccc(/C=N/NC(=O)c2cc(-c3ccco3)nc3ccccc23)cc1`, the AC40 was 6.73 µM.

`C(=C\c1ccc(C2[C@@H]3CN(Cc4nccs4)C[C@H]2N3)cc1)/c1ccccc1` (some centres not stated): the AC40 was 9.48 µM.

In the case of `Cc1cc(Cl)ccc1Oc1nc(-c2ccccc2)ncc1S(C)(=O)=O`, the AC40 was 3.04 µM.

For `Cc1ccc(SC[C@H](C)CN2CC[C@H](C(C)(C)C)CCC2=O)cc1`, the AC40 is 4.93 µM.

Take `OC(CNCCc1ccc(C(F)(F)F)cc1)COc1cccc2ccccc12` (configuration not stated): the AC40 was 4.92 µM.

As to `O=C(CC1c2ccccc2Oc2ccccc21)Nc1ccccc1C(F)(F)F`, the AC40 was 5.33 µM.

`COc1ccc(C(=O)c2sc(Nc3ccccc3)nc2N)cc1OC`: the AC40 is 26.5 µM.

`CNC[C@@H](Cc1ccccc1)NC[C@@H](CC1CCCCC1)NCCCc1ccccc1`: the AC40 is 13.1 µM.

As for `Cc1ccc(NC(=O)CNC(=O)c2sc3ccccc3c2Cl)nc1`, the AC40 is 10.3 µM.

For `COC(=O)Cn1cc(C#N)c2ccccc21`, the AC40 was > 35 µM (inactive).

As to `CC(=O)Nc1ccc(Nc2nc(-c3c(C)nc4ccccn34)cs2)cc1`, the AC40 was 4.46 µM.

On to `Cc1ccc(C)c(OCC(=O)N/N=C/c2c(C)nn(-c3ccccc3)c2Cl)c1C`, for which the AC40 is 1.63 µM.

Take `COc1ccc(C(=O)NC(=S)Nc2ccc3c4c(cccc24)CC3)cc1OC`: the AC40 was 6.85 µM.

Regarding `Cc1nn(-c2ccccc2)c2nc(C(F)F)cc(C(F)F)c12`, the AC40 was 30.4 µM.

Turning to `CCOc1nc(-c2ccccc2)c2cc(Br)ccc2n1`, the AC40 was 21.9 µM.

`Cc1cccc(S(=O)(=O)N2CCCCN3[C@@H](CO)[C@@H](c4ccc(C#CC(C)C)cc4)[C@@H]3C2)c1`: the AC40 is 7.76 µM.

`CC(C)CC#Cc1ccc([C@H]2[C@H]3CN(C(=O)c4cnccn4)CC(=O)N3[C@H]2CO)cc1`: the AC40 was > 35 µM (inactive).

Regarding `CCOC(=O)c1ccc(Nc2ncnc3ccc(C)cc23)cc1`, the AC40 is 11.5 µM.

As for `CC(NCC(O)COCCC12CC3CC(CC(C3)C1)C2)c1ccccc1` (configuration not stated), the AC40 is 8.21 µM.

In the case of `O=C(Cn1ncc(Cl)c(Cl)c1=O)Nc1ccc2c(c1)OCO2`, the AC40 was 8.01 µM.

As for `Cc1ccc(C(=O)c2sc3nc4c(cc3c2N)CCC4)cc1`, the AC40 was 11.3 µM.

Regarding `COc1ccc(S(=O)(=O)N2CCc3ccccc32)cc1C(=O)Nc1cccnc1`, the AC40 is 16.3 µM.

Consider `COc1ccc(-c2ccc(C3[C@@H]4CN(Cc5cccc(OC)c5)C[C@H]3N4)cc2)cc1` (some centres not stated), for which the AC40 is 6.42 µM.

In the case of `COc1ccc(C[C@H]2CN3C(=NC[C@@H]3Cc3ccccc3)N2CCNC(=O)CCC2CCCCC2)cc1`, the AC40 is 13.5 µM.

`Cc1ccc(F)cc1-c1nc(NC(C)C)nc2cc(-c3ccccc3)sc12`: the AC40 was 13.6 µM.
